Data as given in patent CN105732584A, “一种达比加群酯2-酮戊二酸盐晶型i及其制备方法和用途” (Tianjin Institute of Pharmaceutical Research Co Ltd, priority 2014, dated 2016).
≈ marks a conversion by molar mass, not a printed value.

Experiments:
Assay type in all cases: physicochemical
[1] = Stability test (stress factors): change of appearance
[2] = Stability test (stress factors): content determination by HPLC
[3] = Solubility in water at 25℃; conditions: H2O
[4] = high temperature and high humidity
[5] = 7 days, high temperature and high humidity

Row | Structure (SMILES) | change of colour/appearance (in words) [1, 4] | change of colour/appearance (in words) ([1]; sealed, high temperature) | content remaining [2, 5] [%] | change of content with time (in words) ([2]; sealed high temperature, and high temperature with high humidity) | solubility [3] [µg/mL] | moisture absorption (in words) ([1]; high temperature and high humidity, concluded from colour change and caking) | stability (in words) [2, 4] | remaining at 168 h ([2]; high temperature and humidity storage, 7 days, high temperature and high humidity) [%]
1 | CCCCCCOC(=O)N=C(N)c1ccc(NCc2nc3cc(C(=O)N(CCC(=O)OCC)c4ccccn4)ccc3n2C)cc1.O=C(O)CCC(=O)C(=O)O [达比加群酯2-酮戊二酸盐晶型I, 3-[[[2-[[[4-[[[(己氧基)羰基]氨基]亚氨甲基]苯基]氨基]甲基]-1-甲基-1H-苯并咪唑-5-基]羰基](吡啶-2-基)氨基]丙酸乙酯2-酮戊二酸盐] | 颜色虽有变化但不大 | 颜色几乎无变化 | ~98 | 含量随时间变化较小 | – | – | – | –
2 | CCCCCCOC(=O)NC(=N)c1ccc(NCc2nc3cc(C(=O)N(CCC(=O)OCC)c4ccccn4)ccc3n2C)cc1 [达比加群酯甲磺酸盐] | 颜色变化很明显且出现板结现象 | 颜色随时间产生明显变化 | < 20 | – | 1800 (≈ 2870 µM) | 吸潮严重 | 极不稳定 | < 20
